Results as given in patent publication US8748434B2 (Hoffman-La Roche Inc., priority 2012, dated 2014).

Target: T1, human GPBAR1 receptor (Homo sapiens, UniProt Q8TDU6)
T1 construct: expressed in transfected cells
T1 sequence (Q8TDU6 1-330): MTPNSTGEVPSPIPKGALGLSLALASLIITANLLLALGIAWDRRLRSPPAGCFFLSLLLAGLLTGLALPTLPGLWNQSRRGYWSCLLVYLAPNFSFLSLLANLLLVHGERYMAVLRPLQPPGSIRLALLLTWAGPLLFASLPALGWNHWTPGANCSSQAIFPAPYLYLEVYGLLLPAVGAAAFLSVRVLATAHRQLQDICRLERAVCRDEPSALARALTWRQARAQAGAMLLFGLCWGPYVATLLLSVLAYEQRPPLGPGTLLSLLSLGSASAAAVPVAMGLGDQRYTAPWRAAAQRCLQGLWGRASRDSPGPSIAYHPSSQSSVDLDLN
Assay: functional cAMP assay in CHO-dhfr(minus) cells expressing human GPBAR1 receptors
Type: cell-based
Conditions: CHO-dhfr(minus) cells expressing human GPBAR1, compounds incubated 30 min at 30° C.
Description: The cDNA of the human GPBAR1 receptor (Genbank: NM 170699 with the exception of a silent C:G mutation at position 339 from the start codon) was amplified by polymerase chain reaction (PCR) from human cDNA and inserted into pCineo (Promega) by standard methods (Current Protocols in Molecular Biology, Wiley Press, ed. Ausubel et al.). The final clone was verified by DNA sequence analysis. The plasmid was transfected into CHO cells deficient in dihydrofolate reductase activity (CHO-dhfr−) using Lipofectamine plus (Invitrogen). Clones were isolated in limited dilution conditions and identified by activities in the cAMP assay using lithocholic acid as agonist. A clonal cell line displaying the greatest activity in cAMP increases was selected and identified as giving consistently good responses for up to at least 20 passages.
CHO-dhfr(minus) cells expressing human GPBAR1 receptors are seeded 17-24 hours prior to the experiment 50.000 cells per well in a black 96 well plate with flat clear bottom (Corning Costar #3904) in DMEM (Invitrogen No. 31331), 1×HT supplement, with 10% fetal calf serum and incubated at 5% CO2 and 37° C. in a humidified incubator. The growth medium was exchanged with Krebs Ringer Bicarbonate buffer with 1 mM IBMX and incubated at 30° C. for 30 min. Compounds were added to a final assay volume of 100 μl and incubated for 30 min at 30° C. The assay was stopped by the addition of 50 μl lysis reagent (Tris, NaCl, 1.5% Triton X100, 2.5% NP40, 10% NaN3) and 50 μl detection solutions (20 μM mAb Alexa700-cAMP 1:1, and 48 μM Ruthenium-2-AHA-cAMP) and shaked for 2 h at room temperature. The time-resolved energy transfer is measured by a TRF reader (Evotec Technologies GmbH, Hamburg Germany), equipped with a ND:YAG laser as excitation source. The plate is measured twice with the excitation at 355 nm and at the emission with a delay of 100 ns and a gate of 100 ns, total exposure time 10 s at 730 (bandwidth 30 nm) or 645 nm (bandwidth 75 nm), respectively. The measured signal at 730 nm has to be corrected for the ruthenium background, the direct excitation of Alexa and the buffer control. The FRET signal is calculated as follows: FRET=T730−Alexa730−P(T645−B645) with P=R^u730−B730/Ru645−B645, where T730 is the test well measured at […], T645 is the test well measured at 645 nm, B730 and B645 are the buffer controls at 730 nm and 645 nm, respectively. cAMP content is determined from the function of a standard curve spanning from 10 μM to 0.13 nM cAMP.
EC50 values were determined using Activity Base analysis (ID Business Solution, Limited). The EC50 values for a wide range of bile acids generated from this assay were in agreement with the values published in the scientific literature. Specificity for GPBAR1 was tested in non-transfected CHO cells in the same assay as above.

SMILES	EC50
Cc1ccccc1-c1cnncc1N(C)C(=O)c1cc(Cl)cc(S(C)(=O)=O)c1 [Example 16, 3-Chloro-5-methanesulfonyl-N-methyl-N-(5-o-tolyl-pyridazin-4-yl)-benzamide]	663 nM
COc1cc(F)ccc1-c1cc(C)nnc1N(C)C(=O)c1cc(C(F)(F)F)cc(S(C)(=O)=O)c1 [Example 3, N-[4-(4-Fluoro-2-methoxy-phenyl)-6-methyl-pyridazin-3-yl]-3-methanesulfonyl-N-methyl-5-trifluoromethyl-benzamide]	178 nM
Cc1ccccc1-c1cc(Cl)nnc1N(C)C(=O)c1cc(C(F)(F)F)cc(S(=O)(=O)CCCC(=O)O)c1 [Example 10, 4-{3-[(6-Chloro-4-o-tolyl-pyridazin-3-yl)-methyl-carbamoyl]-5-trifluoromethyl-benzenesulfonyl}-butyric acid]	8180 nM
Cc1ccccc1-c1cnncc1N(C)C(=O)c1cc(C(F)(F)F)cc(S(=O)(=O)CCCC(=O)O)c1 [Example 18, 4-{3-[Methyl-(5-o-tolyl-pyridazin-4-yl)-carbamoyl]-5-trifluoromethyl-benzenesulfonyl}-butyric acid]	> 10000 nM
Cc1ccccc1-c1cc(Cl)nnc1N(C)C(=O)c1cc(C(F)(F)F)cc(S(C)(=O)=O)c1 [Example 4, N-(6-Chloro-4-o-tolyl-pyridazin-3-yl)-3-methanesulfonyl-N-methyl-5-trifluoromethyl-benzamide]	2180 nM
CN(C(=O)c1cc(C(F)(F)F)cc(S(C)(=O)=O)c1)c1nnc(Cl)cc1-c1ccccc1 [Example 5, N-(6-Chloro-4-phenyl-pyridazin-3-yl)-3-methanesulfonyl-N-methyl-5-trifluoromethyl-benzamide]	2690 nM
CN(C(=O)c1cc(C(F)(F)F)cc(S(C)(=O)=O)c1)c1nnc(Cl)cc1-c1cccnc1OCC(F)(F)F [Example 11, N-{6-Chloro-4-[2-(2,2,2-trifluoro-ethoxy)-pyridin-3-yl]-pyridazin-3-yl}-3-methanesulfonyl-N-methyl-5-trifluoromethyl-benzamide]	2390 nM
Cc1ccccc1-c1cnncc1N(C)C(=O)c1cc(C(F)(F)F)cc(S(C)(=O)=O)c1 [Example 15, 3-Methanesulfonyl-N-methyl-N-(5-o-tolyl-pyridazin-4-yl)-5-trifluoromethyl-benzamide]	429 nM
COc1ncccc1-c1cc(Cl)nnc1N(C)C(=O)c1cc(C(F)(F)F)cc(S(C)(=O)=O)c1 [Example 8, N-[6-Chloro-4-(2-methoxy-pyridin-3-yl)-pyridazin-3-yl]-3-methanesulfonyl-N-methyl-5-trifluoromethyl-benzamide]	1520 nM
CN(C(=O)c1cc(C(F)(F)F)cc(S(C)(=O)=O)c1)c1nnccc1-c1cccnc1OCC(F)(F)F [Example 12, 3-Methanesulfonyl-N-methyl-N-{4-[2-(2,2,2-trifluoro-ethoxy)-pyridin-3-yl]-pyridazin-3-yl}-5-trifluoromethyl-benzamide]	160 nM
Cc1ccccc1-c1ncncc1N(C)C(=O)c1cc(C(F)(F)F)cc(C(F)(F)F)c1 [Example 19, N-Methyl-N-(4-o-tolyl-pyrimidin-5-yl)-3,5-bis-trifluoromethyl-benzamide]	1480 nM
Cc1ccccc1-c1cnncc1N(C)C(=O)c1cc(C(F)(F)F)cc(S(=O)(=O)CCCC(=O)OC(C)(C)C)c1 [Example 17, 4-{3-[Methyl-(5-o-tolyl-pyridazin-4-yl)-carbamoyl]-5-trifluoromethyl-benzenesulfonyl}-butyric acid tert-butyl ester]	775 nM
CN(C(=O)c1cc(C(F)(F)F)cc(S(=O)(=O)N2CCOCC2)c1)c1nnc(Cl)cc1-c1ccccc1 [Example 6]	427 nM
COc1cc(F)ccc1-c1ccnnc1N(C)C(=O)c1cc(C(F)(F)F)cc(S(C)(=O)=O)c1 [Example 2, N-[4-(4-Fluoro-2-methoxy-phenyl)-pyridazin-3-yl]-3-methanesulfonyl-N-methyl-5-trifluoromethyl-benzamide]	75 nM
Cc1cc(-c2cccnc2OCC(F)(F)F)c(N(C)C(=O)c2cc(C(F)(F)F)cc(S(C)(=O)=O)c2)nn1 [Example 13, 3-Methanesulfonyl-N-methyl-N-{6-methyl-4-[2-(2,2,2-trifluoro-ethoxy)-pyridin-3-yl]-pyridazin-3-yl}-5-trifluoromethyl-benzamide]	3910 nM
COc1cc(F)ccc1-c1cc(Cl)nnc1N(C)C(=O)c1cc(C(F)(F)F)cc(S(C)(=O)=O)c1 [Example 1, N-[6-Chloro-4-(4-fluoro-2-methoxy-phenyl)-pyridazin-3-yl]-3-methanesulfonyl-N-methyl-5-trifluoromethyl-benzamide]	165 nM
COc1cc(F)ccc1-c1cnncc1N(C)C(=O)c1cc(C(F)(F)F)cc(S(C)(=O)=O)c1 [Example 14, N-[5-(4-Fluoro-2-methoxy-phenyl)-pyridazin-4-yl]-3-methanesulfonyl-N-methyl-5-trifluoromethyl-benzamide]	230 nM
CN(C(=O)c1cc(C(F)(F)F)cc(C(F)(F)F)c1)c1nnc(Cl)cc1-c1ccccc1 [Example 7, N-(6-Chloro-4-phenyl-pyridazin-3-yl)-N-methyl-3,5-bis-trifluoromethyl-benzamide]	299 nM
